According to patent US8629283B2, “Compounds that modulate negative-sense, single-stranded RNA virus replication and uses thereof” (Icahn School of Medicine at Mount Sinai, priority 2008, dated 2014):
Where two headings read alike, the source gives them in different places. Marks after values point to notes of the source that are not given here.

What was measured:
[1] = system: influenza B/Yamagata/88 virus; assay type: cell-based
[2] = target: influenza viral RNA polymerase (Influenza A virus, UniProt P03427+P03430+P15659); assay type: cell-based
[3] = system: influenza virus; assay type: cell-based
[4] = system: A549 cells; conditions: human
[5] = system: influenza A virus (FluA)
[6] = system: host cell replication machinery
[7] = in vitro; conditions: human
[8] = in vitro; conditions: dog
[9] = in vitro; conditions: mouse
[10] = in vitro; conditions: human; remark: listed apart in the source
[11] = system: influenza A virus (FluA); test: in vitro; conditions: human
[12] = system: influenza A virus (FluA); test: microbe, parasite or virus in culture
[13] = system: influenza A/Wyoming/03/2003 virus; assay type: cell-based
[14] = system: influenza A/Moscow/10/99 virus; assay type: cell-based
[15] = system: influenza A/WSN/33 virus
[16] = system: Newcastle disease virus (NDV/B1); assay type: cell-based
[17] = system: vesicular stomatitis virus (VSV); assay type: cell-based
[18] = system: influenza virus WSN; assay type: cell-based, influenza A virus
[19] = system: H5N1/PR8 virus; assay type: cell-based, influenza A virus
[20] = system: influenza A/WSN/33 virus; assay type: cell-based
[21] = system: caspase-3; conditions: human, 6 h
[22] = system: VSV; assay type: cell-based, vesicular stomatitis virus
[23] = system: retrovirus MLV; assay type: cell-based

Structure (SMILES)	inhibition of FluB (A549) [1]	effect on entry of influenza virus [3]	inhibition of FluA (A549) [5] [%]	inhibition of FluA (HTBE) [5] [%]	inhibition of FluA (MDCK) [5] [%]	inhibition of FluA (MEF) [5] [%]	SI (MDCK) [5]	CC50 [8] [nM]	CC50 [9] [nM]	selectivity ratio [11]	IC50 ([12]; A549, read-out: IC50 (A549)) [nM]	IC50 ([12]; MDCK, read-out: IC50 (MDCK)) [nM]	IC50 ([12]; MEF, read-out: IC50 (MEF)) [nM]	IC50 ([12]; read-out: IC50 (HTBE)) [nM]	also measured
Cc1[nH]c2ccc(-c3nnc(SCC(=O)N4CCCC4)o3)cc2c1C [A3, 2-(5-(2,3-dimethyl-1H-indol-5-yl)-1,3,4-oxadiazol-2-ylthio)-1-(pyrrolidin-1-yl)ethanone]	94% (A549)*	did not inhibit viral entry	97	99.99	~99.6	~91.2	>122	> 100000	> 100000	496	540	820	3600	42	inhibition of growth of influenza B virus [1]: about 1.5 logs; inhibition of viral RNA polymerase activity [2]: up to 99%; CC10 (A549), concentration of 10% cytotoxicity [4]: 38000 nM; Inhibition of FluA (Table 5) [5]: 99.2%*; effect on overall host cell replication machinery (renilla luciferase control plasmid) [6]: not affected; CC50 at 24 h [7]: 268000 nM; CC50 [10]: 108000 nM; IC50 ([12]; read-out: IC50 in HTBE cells): 42 nM
C=C(C)[C@@]12O[C@@]3(c4ccccc4)O[C@@H]1[C@@H]1[C@@H]4O[C@]4(CO)[C@@H](O)[C@]4(O)C(=O)C(C)=C[C@H]4[C@@]1(O3)[C@H](C)[C@H]2OC(=O)/C=C/C=C/c1ccccc1 [mezerein]															increase of viral titer compared to untreated cells [1]: 8 fold; maximum viral titer compared to untreated cells [13]: significant increase; maximum viral titer compared to untreated cells [14]: significant increase; increase in viral titers in Vero cells [15]: 15 fold; increase of viral titer compared to untreated cells [15]: 17 fold
CN(c1nc(-c2ccc(Br)cc2)cs1)C1CCS(=O)(=O)C1 (stereo not drawn) [A35, 4-(4-bromophenyl)-N-methyl-N-(tetrahydro-1,1-dioxido-3-thienyl)-2-thiazolamine]	63% (A549)*	did not affect the entry step	99.988	99.98	~75	~99.6	7	26800	96600	53	2100	3910	2640	1980	inhibition of influenza B virus [1]: less significant inhibition; inhibition of NDV [16]: less significant inhibition; inhibition of VSV [17]: less significant inhibition; inhibition of viral replication [18]: 4 logs; CC10 (A549), concentration of 10% cytotoxicity [4]: 11200 nM; Inhibition of FluA (Table 5) [5]: 99.99%*; inhibition of FluA (293T) [5]: ~50%; inhibition of FluA (Detroit) [5]: ~95.6%; inhibition of FluA (HUH7.5) [5]: ~98.4%; inhibition of influenza virus replication [5]: up to 4 logs; IC50 ([12]; HEK-293T, read-out: IC50 (293T)): 6200 nM; IC50 ([12]; Huh7.5, read-out: IC50 (HUH7.5)): 3970 nM; IC50 ([12]; read-out: IC50 (Detroit)): 2070 nM
NC(=NC(=O)c1nc(Cl)c(N)nc1N)NCc1ccc(Cl)cc1Cl [2′,4′-dichlorobenzamil]															increase of viral titer compared to untreated cells [1]: 4 fold; maximum viral titer compared to untreated cells [13]: significant increase; maximum viral titer compared to untreated cells [14]: significant increase; increase of viral titer compared to untreated cells [19]: ~20 fold; increase in viral titers in Vero cells [15]: 11 fold; increase of viral titer compared to untreated control [15]: 10^3 fold; influenza virus growth versus untreated control [15]: boost influenza virus replication
NC(=Nc1ccccc1)NC(=O)c1nc(Cl)c(N)nc1N [phenamil]															HTS result (luciferase signal of influenza mini-genome reporter) [20]: increased luciferase signals; increase of viral titer compared to untreated control [15]: 16 fold; induction of apoptosis (caspase-3 activity, fluorescence vs untreated cells) [21]: 1.3 fold
NC(=O)c1ncn([C@@H]2O[C@H](CO)[C@@H](O)[C@H]2O)n1 [ribavirin, reference compound]															inhibition of viral RNA polymerase activity [2]: 90%
COc1cc2c(O)c3c(c(-c4ccc5c(c4)OCO5)c2cc1OC)C(=O)OC3 [C2, 9-(benzo[d][1,3]dioxol-5-yl)-4-hydroxy-6,7-dimethoxynaphtho[2,3-c]furan-1(3H)-one]	63% (A549)*	inhibited	94.7	99.96	~87.5	~96	4	670	4850	82	1600	150	340	59	effect on course of infection [18]: did not affect the course of infection; effect on entry of VSV [22]: inhibited; effect on entry of MLV [23]: unaffected; inhibition of influenza virus replication [5]: up to 3.5 logs; IC50 ([12]; read-out: IC50 in HTBE cells): 59 nM
